Read-outs that look alike come from different tables or passages of the source. Marks after values point to notes of the source that are not given here.
Experiments:
root knot nematode = assay: Pre-plant incorporated (PPI) greenhouse test of root knot nematode on cucumber plants; type: in vivo; conditions: for pest or weed control at 4000 g/ha: 4 kg/ha, read-out: percent control (galling reduction), 4 kg/ha rate; for pest or weed control at 8000 g/ha: 8 ka/ha, read-out: percent control (galling reduction), 8 ka/ha rate
Procedure, shortened: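 Compound in acetone, diluted in 0.05% X100, was mixed into a field soil/sand mix at doses simulating 8, 4 and 2 kg/ha incorporated 15 cm deep, with 4 pots per treatment. Cucumber was seeded and root knot nematode eggs were applied 7, 14 or 21 days after soil treatment. Harvest followed 14 days after inoculation.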

caspase-3 = assay: Caspase-3 activity in H4IIE cells (DEVD-AMC); type: cell-based; conditions: rat hepatoma derived H4IIE cells, concentrations up to 300 μM
Experimental: To evaluate whether the compound classes of this invention are able to induce apoptosis, caspase-3 activity was determined after compound exposure in rat hepatoma derived H4IIE cells using a caspase substrate (DEVD, Asp-Glu-Val-Asp) labeled with a fluorescent molecule, 7-Amino-4-methylcoumarin (AMC). Caspase 3 cleaves the tetrapeptide between D and AMC, thus releasing the fluorogenic […] AMC. Following the test article exposure to cells in 96-well plates, medium was aspirated from plates and PBS added to each well. Plates were stored at −80° C. to lyse cells and store samples until further analysis. On the day of analysis, plates were removed from freezer and thawed. Caspase buffer with fluorescent substrate was added to each well and incubated at room temperature for one hour. AMC release was measured in a spectrofluorometer at an excitation wavelength of 360 nm and an emission wavelength of 460 nm. Values are expressed as relative fluorescent units (RFU).

[1] = test system: soybean cyst nematode (SCN); assay: SCN greenhouse sand assay on soybean plants; type: in vivo; conditions: Glycine max, 672 h, read-out: percent control (cyst number reduction) relative to the control blank treatment
root knot nematode (RKN) = assay: RKN greenhouse soil assay on cucumber plants; type: in vivo; conditions: for percent control (galling reduction) relative to the control blank treatment: 0 day treatment
Description: Cucumber seeds are planted in a sandy soil mixture in two inch square plastic pots. When the cotyledons are fully opened and just as the first leaf begins to emerge, usually 7 days after planting, chemistry for the 7 day treatment is applied. One week later the chemistry for the 0 day treatment is applied. Separate plants are used for each application. The plants are generally in the 1-2 leaf stage now. At least four hours after the chemistry application the pots are inoculated with root knot nematode (RKN) eggs. Plants are rated for galling 14 days after the egg inoculation.
One milligram of chemistry per four pots is equal to one kilogram per hectare of chemical. A standard test uses four replications. For rates above 2 kg/ha, the desired amount of chemical is weighed into a 30 ml vial (example: 8 kg/ha rate =8 mg chemical in 30 ml vial). The chemical is dissolved in 2 ml of appropriate solvent, generally acetone. For rates below 2 kg/ha, 2 milligrams of chemistry is weighed into the vial and dissolved in 2 ml of the solvent. The appropriate amount of chemical concentrate is then pipetted into a separate 30 ml vial and solvent is added to bring the volume to 2 ml (example 0.5 kg/ha=0.5 ml of concentrate+1.5 ml solvent). Each dissolved concentrate is then brought to a total of 20 milliliters using 0.05% Triton X 100 surfactant solution.
Pots to be treated are moist but not saturated. To each of four pots, five milliliters of the appropriate chemical solution is pipetted to the media surface making sure to avoid contact with the base of the plant. Immediately following chemical application, using a mist nozzle, the pot surface is wetted sufficiently to saturate the pot watering in the chemistry. The chemical application is done in the morning.
Nematode eggs, either SCN or RKN, are added to distilled water to create a concentration of 1000 vermiform eggs […]. At least four hours after chemical treatment the eggs are applied to the treated pots plus non-treated check plants. A small hole about 1 cm deep is punched into the pot surface. One milliliter of the nematode egg slurry is pipetted into the hole. Immediately afterwards the hole is gently covered. Watering of the test plants is then restricted to only water as needed to prevent wilt for a period of 24 hours. After the 24 hour restricted watering, normal sub-irrigation watering is done for the duration of the test.

[2] = 168 h, seven day pre-plant incorporated
[3] = 336 h, fourteen day pre-plant incorporated, test a
[4] = 504 h, twenty one day pre-plant incorporated
[5] = fourteen day pre-plant incorporated, test a

SMILES	pest or weed control at 4000 g/ha (root knot nematode; [2])	pest or weed control at 8000 g/ha (root knot nematode; [2])	pest or weed control at 4000 g/ha (root knot nematode; [3])	pest or weed control at 4000 g/ha (root knot nematode; [4])	pest or weed control at 8000 g/ha (root knot nematode; [4])	percent control (galling reduction), 2 kg/ha rate (root knot nematode; [5])	pest or weed control at 8000 g/ha (root knot nematode; [5])	induction of caspase-3 (caspase-3)	pest or weed control at 2000 g/ha ([1]; 2 kg/ha, test a)	percent control (galling reduction) relative to the control blank treatment (root knot nematode (RKN); 0.05 kg/ha, test a)	percent control (galling reduction) relative to the control blank treatment (root knot nematode (RKN); 0.25 kg/ha, test a)	percent control (galling reduction), Acetone 1 mg/kg (root knot nematode (RKN); Acetone formulation (10% acetone in 0.05% Triton X 100), 1 mg/kg)	pest or weed control at 4000 g/ha (root knot nematode; 336 h, fourteen day pre-plant incorporated, test b)	pest or weed control at 8000 g/ha (root knot nematode; fourteen day pre-plant incorporated, test b)	pest or weed control at 100 g/ha ([1]; 0.1 kg/ha, test d)	pest or weed control at 250 g/ha ([1]; 0.25 kg/ha, test d)	percent control (galling reduction) relative to the control blank treatment (root knot nematode (RKN); 0.1 kg/ha, test a)	percent control (galling reduction) relative to the control blank treatment (root knot nematode (RKN); 0.25 kg/ha, test c)
c1ccc(-c2noc(-c3cccs3)n2)cc1 [compound 1822]	99%	99%	97%	82%	95%	67^a percent	100%	no induction of caspase-3	100%	7^a percent	60%	94%						
Cc1cc(Cl)ccc1-c1noc(-c2ccco2)n1 [compound 5823]			98%			85^a percent	100%	no induction of caspase-3					94%	100%	38%	69%	85%	98%
